{"source": "patent US10406120B2", "about": "“Methods and compositions for treating kidney disorders” (Golden Biotechnology Corporation, priority 2013, dated 2019)", "key": {"[1]": {"system": "nitric oxide (NO)", "assay": "AcP-IgAN model: NO levels", "assay_type": "in vivo, B cell-deficient mice", "conditions": "AcP-IgAN mice", "source_text": "NO levels in serum were detected with NO Detection kit (iNtRON Biotechnology, Seongnam, Korea), based on diazotization (Griess method), according to the manufacturer's instructions.\n(§1) B cell-deficient mice (B6.129S2-Igh-6tm1Cgn/J) were obtained from the Academia Sinica (Professor John T. Kung, Institute of Molecular Biology), and maintained at the animal center of the National Defense Medical Center, Taipei, Taiwan. AcP-IgAN was induced in the mice by daily injection of purified IgA anti-phosphorylcholine antibodies and pneumococcal C-polysaccharide (PnC) as described previously (Chao, et al., Kidney Int. 70:283-297; 2006). All animal experiments were performed with the approval of the Institutional Animal Care and Use Committee of The National Defense Medical Center, Taiwan, and were consistent with the NIH Guide for the Care and Use of Laboratory Animals."}, "[2]": {"assay": "AcP-IgAN model: body weight and general condition", "assay_type": "in vivo, B cell-deficient mice", "conditions": "AcP-IgAN mice, 50 mg/kg, up to day 28", "method": "as §1\n(§2) Body weight of the mice was measured weekly. Urine samples were collected in metabolic cages weekly, and urine protein determined followed the know methods (Chao, et al., Kidney Int. 70:283-297; 2006). Serum samples were collected at day 3 and day 28 to measure serum levels of blood urea nitrogen (BUN) and creatinine (Cr)."}, "[3]": {"system": "TGF-β1", "assay": "FSGS model: TGF-β1 in serum and kidney (ELISA, IHC)", "assay_type": "in vivo, BALB/c mice", "conditions": "FSGS mice", "method": "Experiments described herein were performed on 8-week-old female BALB/c mice. The FSGS mice were injected intravenously with a single dose of adriamycin (0.1 mg/10 g body weight). The mice were given Compound 1 six hours before adriamycin injection by gavage daily till sacrifice. BALB/c mice intraperitoneal injected with normal saline were used as normal controls, while ASLN mice given vehicle (corn oil) by gavage were used as disease controls. Mice were killed at day 7, 14, or 21 after disease induction, and spleen, renal cortical tissue, and blood samples collected and stored appropriately until analysis. All animal experiments were performed with the ethical approval of the Institutional Animal Care and Use Committee of The National Defense Medical Center, Taiwan and performed according to the ethical rules in the NIH Guide for the Care and Use of Laboratory Animals.\nFor IHC, formalin-fixed and paraffin-embedded renal sections were prepared and incubated with primary antibodies against mouse Desmin (Lab Vision, CA, USA), CD3 (pan-T cell; Serotec, N.C., USA), F4/80 (monocytes/macrophages; Serotec), IL-6 (R&D Systems, MN, USA), NF-κB p65 (Cell Signaling Technology, MA, USA), collagen I, III, and IV (Southern Biotech, AL, USA), or TGF-β1 (Santa Cruz Biotechnology, CA, USA), biotinylated second antibodies (Dako, Glostrup, Denmark), and avidin-biotin-peroxidase complex (Dako). Semi-quantitative evaluation of staining was performed.\nThe TGF-β1 protein levels in serum and renal tissue were measured using the commercial ELISA kits (R&D Systems), according to the manufacturer's instructions. Samples were acidified with 1 N HCl and neutralized with 1.2 N NaOH/0.5 M HEPES to assay for the amount of TGF-β1."}, "[4]": {"system": "apoptosis in the kidney", "assay": "AcP-IgAN model: apoptosis in the kidney (TUNEL)", "assay_type": "in vivo, B cell-deficient mice", "method": "as §1\nFor the detection of apoptosis, terminal deoxynucleotidyl transferase-mediated dUTP nick-end labeling (TUNEL) was employed. Formalin-fixed and paraffin-embedded tissue sections were stained with ApopTag plus peroxidase in situ apoptosis detection kit (Chemicon, CA) according to the manufacturer's instructions. For scoring, the cortical renal area (including glomerular and peri-glomerular areas) were examined and expressed as cells/glomerular cross-section."}, "[5]": {"system": "caspase-1", "assay": "AcP-IgAN model: renal caspase-1 mRNA and protein", "assay_type": "in vivo, B cell-deficient mice", "conditions": "AcP-IgAN mice", "method": "as §1\nTotal cortical kidney RNA was extracted with TriZOL reagents (Invitrogen) from cortical tissue of the kidney. For first-strand cDNA synthesis, 1.5 μg of total RNA was used in a single-round reverse transcriptase reaction. The reaction mixture consisted of 0.9 μl of Oligo (dT) 12 to 18 primer, 1.0 mM deoxyribonucleotide triphosphate (dNTP), 1 μl first strand buffer, 0.4 mM dithiothreitol, 80 U of RNaseout recombinant ribonuclease inhibitor, and 300 U of superscript II RNase H (Invitrogen). […]\nEach protein sample was run on a 10% SDS-PAGE gel. […] The membrane-bound antibody detected was incubated with chemiluminescent reagent plus (PerkinElmer Life Sciences, MA) and captured on x-ray film."}, "[6]": {"assay": "AcP-IgAN model: urine protein and renal function (BUN, Cr)", "assay_type": "in vivo, B cell-deficient mice", "conditions": "AcP-IgAN mice", "method": "as §1, §2"}, "[7]": {"conditions": "both day 3 and day 28, vs control AcP-IgAN mice"}, "[8]": {"conditions": "day 28, vs control AcP-IgAN mice"}, "[9]": {"conditions": "day 14 and day 21, vs control FSGS mice"}, "[10]": {"conditions": "day 3, between control AcP-IgAN, AcP-IgAN+Antroq and normal control mice"}}, "data": [{"smiles": "COC1=C(OC)[C@H](O)[C@H](C/C=C(\\C)CC/C=C(\\C)CCC=C(C)C)[C@@H](C)C1=O", "note": "[Compound 1, Antroquinonol]", "values": [{"measurement": "urine NO levels", "setting": "[1]; [7]", "value": "significantly decreased"}, {"measurement": "serum levels of NO", "setting": "[1]; day 3, vs control AcP-IgAN mice", "value": "no significant difference"}, {"measurement": "serum levels of NO", "setting": "[1]; [8]", "value": "substantially reduced"}, {"measurement": "activity, hair loss, appetite", "setting": "[2]", "value": "normal activity and no evidence of hair loss or appetite change"}, {"measurement": "growth (body weight recorded every week)", "setting": "[2]", "value": "no different from that of normal controls"}, {"measurement": "TGF-β1 protein levels in kidney (ELISA)", "setting": "[3]; [9]", "value": "greatly abrogated"}, {"measurement": "TGF-β1 protein levels in serum (ELISA)", "setting": "[3]; [9]", "value": "greatly abrogated"}, {"measurement": "TGF-β1 protein expression in the kidney (IHC)", "setting": "[3]; vs control FSGS mice", "value": "significantly lower"}, {"measurement": "apoptosis in the kidney (TUNEL), increase", "setting": "[4]; AcP-IgAN mice, day 28, vs control AcP-IgAN mice", "value": "greatly inhibited"}, {"measurement": "apoptosis in the kidney (TUNEL)", "setting": "[4]; all the mice examined, day 3", "value": "inconspicuous apoptosis"}, {"measurement": "renal increase in caspase-1 protein levels", "setting": "[5]; [7]", "value": "greatly inhibited"}, {"measurement": "renal mRNA expression levels of caspase-1 (elevation)", "setting": "[5]; day 3 until day 28, real-time PCR", "value": "greatly inhibited"}, {"measurement": "urine protein levels", "setting": "[6]; 50 mg/kg, day 7 to day 28, vs control AcP-IgAN mice (vehicle)", "value": "greatly suppressed"}, {"measurement": "proteinuria", "setting": "[6]; compared to normal controls", "value": "mild proteinuria"}, {"measurement": "serum levels of BUN", "setting": "[6]; [10]", "value": "no significant difference"}, {"measurement": "serum levels of Cr", "setting": "[6]; [10]", "value": "no significant difference"}, {"measurement": "serum levels of BUN", "setting": "[6]; [8]", "value": "much better renal function"}, {"measurement": "serum levels of creatinine", "setting": "[6]; [8]", "value": "much better renal function"}]}]}
